# Conditions: Week 12; <50% AEC reduction at Week 16
compound,measurement,value
"CCCN[C@@H]1CCc2nc(N)sc2C1 [Dexpramipexole, (6R)-2-amino-4,5,6,7-tetrahydro-6-(propylamino)benzothiazole]","Pre-BD FEF25-75 % change from baseline, Max",47%
same,"Pre-BD FEF25-75 % change from baseline, Mean ± SD",23.9 ± 28.49%
same,"Pre-BD FEF25-75 % change from baseline, Median",30.3%
same,"Pre-BD FEF25-75 % change from baseline, Min",−12%
same,"Pre-BD FEF25-75 % change from baseline, Q1",1%
same,"Pre-BD FEF25-75 % change from baseline, Q3",47%
same,"Pre-BD FEF25-75 Observed, Max",2050 mL/s
same,"Pre-BD FEF25-75 Observed, Mean ± SD",857.5 ± 805.29 mL/s
same,"Pre-BD FEF25-75 Observed, Median",515.0 mL/s
same,"Pre-BD FEF25-75 Observed, Min",350 mL/s
same,"Pre-BD FEF25-75 Observed, Q1",370 mL/s
same,"Pre-BD FEF25-75 Observed, Q3",1345 mL/s
same,"Pre-BD FEF25-75 change from baseline, Max",660 mL/s
same,"Pre-BD FEF25-75 change from baseline, Mean ± SD",182.5 ± 329.18 mL/s
same,"Pre-BD FEF25-75 change from baseline, Median",80.0 mL/s
same,"Pre-BD FEF25-75 change from baseline, Min",-90 mL/s
same,"Pre-BD FEF25-75 change from baseline, Q1",-20 mL/s
same,"Pre-BD FEF25-75 change from baseline, Q3",385 mL/s
same,"Pre-BD FEV1 % change from baseline, Max",41%
same,"Pre-BD FEV1 % change from baseline, Mean ± SD",10.1 ± 21.78%
same,"Pre-BD FEV1 % change from baseline, Median",4.2%
same,"Pre-BD FEV1 % change from baseline, Min",−9%
same,"Pre-BD FEV1 % change from baseline, Q1",−3%
same,"Pre-BD FEV1 % change from baseline, Q3",23%
same,"Pre-BD FEV1 Observed, Max",2940 mL
same,"Pre-BD FEV1 Observed, Mean ± SD",1672.5 ± 886.84 mL
same,"Pre-BD FEV1 Observed, Median",1440.0 mL
same,"Pre-BD FEV1 Observed, Min",870 mL
same,"Pre-BD FEV1 Observed, Q1",1145 mL
same,"Pre-BD FEV1 Observed, Q3",2200 mL
same,"Pre-BD FEV1 change from baseline, Max",860 mL
same,"Pre-BD FEV1 change from baseline, Mean ± SD",200.0 ± 449.52 mL
same,"Pre-BD FEV1 change from baseline, Median",45.0 mL
same,"Pre-BD FEV1 change from baseline, Min",-150 mL
same,"Pre-BD FEV1 change from baseline, Q1",-55 mL
same,"Pre-BD FEV1 change from baseline, Q3",455 mL
same,"Pre-BD FVC % change from baseline, Max",10%
same,"Pre-BD FVC % change from baseline, Mean ± SD",−3.1 ± 11.75%
same,"Pre-BD FVC % change from baseline, Median",−2.9%
same,"Pre-BD FVC % change from baseline, Min",−17%
same,"Pre-BD FVC % change from baseline, Q1",−12%
same,"Pre-BD FVC % change from baseline, Q3",6%
same,"Pre-BD FVC Observed, Max",3990 mL
same,"Pre-BD FVC Observed, Mean ± SD",2942.5 ± 825.44 mL
same,"Pre-BD FVC Observed, Median",2830.0 mL
same,"Pre-BD FVC Observed, Min",2120 mL
same,"Pre-BD FVC Observed, Q1",2300 mL
same,"Pre-BD FVC Observed, Q3",3585 mL
same,"Pre-BD FVC change from baseline, Max",370 mL
same,"Pre-BD FVC change from baseline, Mean ± SD",-52.5 ± 345.68 mL
same,"Pre-BD FVC change from baseline, Median",-75.0 mL
same,"Pre-BD FVC change from baseline, Min",-430 mL
same,"Pre-BD FVC change from baseline, Q1",-320 mL
same,"Pre-BD FVC change from baseline, Q3",215 mL
same,"Pre-BD Peak Flow % change from baseline, Max",478%
same,"Pre-BD Peak Flow % change from baseline, Mean ± SD",121.7 ± 237.65%
same,"Pre-BD Peak Flow % change from baseline, Median",12.2%
same,"Pre-BD Peak Flow % change from baseline, Min",−15%
same,"Pre-BD Peak Flow % change from baseline, Q1",−5%
same,"Pre-BD Peak Flow % change from baseline, Q3",249%
same,"Pre-BD Peak Flow Observed, Max",246 L/min
same,"Pre-BD Peak Flow Observed, Mean ± SD",204.8 ± 42.39 L/min
same,"Pre-BD Peak Flow Observed, Median",210.5 L/min
same,"Pre-BD Peak Flow Observed, Min",152 L/min
same,"Pre-BD Peak Flow Observed, Q1",171 L/min
same,"Pre-BD Peak Flow Observed, Q3",239 L/min
same,"Pre-BD Peak Flow change from baseline, Max",191 L/min
same,"Pre-BD Peak Flow change from baseline, Mean ± SD",48.3 ± 98.44 L/min
same,"Pre-BD Peak Flow change from baseline, Median",18.0 L/min
same,"Pre-BD Peak Flow change from baseline, Min",-34 L/min
same,"Pre-BD Peak Flow change from baseline, Q1",-12 L/min
same,"Pre-BD Peak Flow change from baseline, Q3",108 L/min

# From patent US20250352520A1, “USE OF DEXPRAMIPEXOLE FOR THE TREATMENT OF EOSINOPHILIC COPD” (Areteia Therapeutics, Inc., priority 2024, published 2025)
